Source: ChEMBL document CHEMBL4390689 (Bioorg Med Chem Lett, 2019)
pIC50: −log10 of the molar value. Activity calls are given as the source filed them. The calls are words filed in the database; no cut-off is given here.

Tests used:
[1] = molecular target: T1, Tubulin alpha (Homo sapiens) (UniProt P0DPH7+P68366+Q71U36+P68363+Q9BQE3+Q6PEY2+A6NHL2+Q9NY65); test: Induction of microtubule disposition in human HeLa cells assessed as detection of alpha tubulin isoform at 10 nM for 20 hrs measured by immunofluorescence method; type: cell-based
Bos taurus [2] = organism: Bos taurus; test: Inhibition of bovine microtubule polymerization at 143 uM and measured upto 5000 sec by tubulin polymerisation assay
HeLa [3] = test: Induction of microtubule disposition in human HeLa cells assessed as detection of gamma tubulin isoform at 10 nM for 20 hrs measured by immunofluorescence method; type: cell-based
HeLa [4] = test: Induction of mitotic arrest in human HeLa cells after 24 hrs by immunofluorescence based confocal microscopy relative to control; type: functional, cell-based
HeLa [5] = test: Growth inhibition of human HeLa cells measured after 72 hrs by phosphatase assay; type: functional, cell-based
Tubulin (Sus scrofa) = Tubulin (Sus scrofa) (UniProt P02554+P02550); test: Competitive displacement of BODIPY-VBL from porcine brain tubulin at 1.8 uM in presence of GTP by fluorescence method relative to control
L1210 = test: Growth inhibition of mouse L1210 cells measured after 72 hrs by phosphatase assay; type: functional, cell-based; conditions: L1210, 72 h
Sus scrofa [6] = organism: Sus scrofa; test: Effect on GMPCPP-induced porcine brain microtubule polymerization assessed as catalytic depolymerisation of microtubulin at 2 uM measured upto 30 mins by UV spectrophotometric method
HCT-116 = test: Growth inhibition of human HCT116 cells measured after 72 hrs by phosphatase assay; type: functional, cell-based; conditions: HCT-116, 72 h
Sus scrofa [7] = organism: Sus scrofa; test: Inhibition of paclitaxel-induced porcine brain microtubule polymerization at 2 uM under 4 degreeC measured upto 30 mins by UV spectrophotometric method
Sus scrofa [8] = organism: Sus scrofa; test: Inhibition of paclitaxel-induced porcine brain microtubule polymerization at 2 uM measured upto 30 mins by UV spectrophotometric method
Bos taurus [9] = organism: Bos taurus; test: Inhibition of bovine microtubule polymerization at 143 nM and measured upto 5000 sec by tubulin polymerisation assay
Sus scrofa [10] = organism: Sus scrofa; test: Inhibition of GMPCPP-induced porcine brain microtubule polymerization at 2 uM under 4 degreeC measured upto 30 mins by UV spectrophotometric method
Bos taurus [11] = organism: Bos taurus; test: Inhibition of bovine microtubule polymerization at 143 pM and measured upto 5000 sec by tubulin polymerisation assay
HCT-116/VM46 = test: Growth inhibition of human HCT116/VM46 cells measured after 72 hrs by phosphatase assay; type: functional, cell-based; conditions: HCT-116/VM46, 72 h
Sus scrofa [12] = organism: Sus scrofa; test: Inhibition of GMPCPP-induced porcine brain microtubule polymerization at 2 uM measured upto 30 mins by UV spectrophotometric method
Tubulin (Homo sapiens) [13] = molecular target: T2, Tubulin (Homo sapiens) (UniProt P68371+Q9H4B7+P0DPH7+P68366+Q13509+Q71U36+P04350+Q3ZCM7+P07437+P68363+Q9BQE3+Q6PEY2+Q13885+Q9BVA1+Q9BUF5); test: Inhibition of global microtubule skeleton in human HeLa cells assessed as catastrophic effect on global microtubule skeleton at 75 pM incubated for 20 hrs by Hoechst/[…] staining based confocal microscopy; type: cell-based
[14] = molecular target: Tubulin beta (Homo sapiens) (UniProt P68371+Q9H4B7+Q13509+P04350+Q3ZCM7+P07437+Q13885+Q9BVA1+Q9BUF5+A6NNZ2); test: Induction of microtubule disposition in human HeLa cells assessed as detection of beta tubulin isoform at 500 nM for 20 hrs measured by immunofluorescence method; type: cell-based
Tubulin (Homo sapiens) [15] = molecular target: T2, Tubulin (Homo sapiens); test: Induction of microtubule disposition in human HeLa cells assessed as appearance of multiple clumps of tubulin at 500 pM for 20 hrs measured by immunofluorescence method; type: cell-based
Tubulin (Homo sapiens) [16] = molecular target: T2, Tubulin (Homo sapiens); test: Induction of microtubule disposition in human HeLa cells assessed as appearance of clumps of tubulin without […] at 500 pM incubated for 20 hrs measured by immunofluorescence method; type: cell-based
HeLa [17] = test: Induction of microtubule disposition in human HeLa cells assessed as detection of gamma tubulin isoform at 500 nM for 20 hrs measured by immunofluorescence method; type: cell-based
Tubulin (Homo sapiens) [18] = molecular target: T2, Tubulin (Homo sapiens); test: Inhibition of GFP tagged human tubulin expressed in human HeLa cells assessed as increase in the ratio of short versus medium and long microtubules after 5 hrs by TIRF super resolution microscopy; type: cell-based
HeLa [19] = test: Induction of mitotic arrest in human HeLa cells after 24 hrs by immunofluorescence based confocal microscopy relative to vinblastine; type: functional
Tubulin (Homo sapiens) [20] = molecular target: T2, Tubulin (Homo sapiens); test: Inhibition of human GFP tagged tubulin expressed in human HeLa cells assessed as suppression of microtubule dynamics at 500 nM after 5 hrs by TIRF super resolution microscopy; type: cell-based
[21] = molecular target: T1, Tubulin alpha (Homo sapiens); test: Induction of microtubule disposition in human HeLa cells assessed as detection of alpha tubulin isoform at 500 nM for 20 hrs measured by immunofluorescence method; type: cell-based
HeLa [22] = test: Potency index, ratio of vinblastine effect to compound effect for Induction of mitotic arrest in human HeLa cells after 24 hrs by immunofluorescence based confocal microscopy relative to control; type: functional

inhibition (Bos taurus [2])	pIC50 (HeLa [5])	Activity (Tubulin (Sus scrofa)) [%]	pIC50 (L1210)	Activity (Sus scrofa [6])	pIC50 (HCT-116)	inhibition (Sus scrofa [7])	inhibition (Sus scrofa [8])	inhibition (Bos taurus [9])	inhibition (Sus scrofa [10])	inhibition (Bos taurus [11])	pIC50 (HCT-116/VM46)	inhibition (Sus scrofa [12])	Structure (SMILES)	Activity (HeLa [4])	further results
Active	8.11	31											CC[C@]1(O)C[C@@H]2CN(CCc3c([nH]c4ccccc34)[C@@](C(=O)OC)(c3cc4c(cc3OC)N(C)[C@H]3[C@@](O)(C(=O)OC)[C@H](OC(C)=O)[C@]5(CC)C=CCN6CC[C@]43[C@@H]65)C2)C1 [VINBLASTINE]	Dose-dependent effect	Activity [1]: Active; Activity (HeLa [3]): inactive
		104	10.21	inactive	10.13	Active	inactive	inactive	Active	inactive	9.06	inactive	CC[C@]1(NC(=O)N2Cc3ccc(NC(=O)c4ccncn4)cc3C2)C[C@H]2CN(CCc3c([nH]c4ccccc34)[C@@](C(=O)OC)(c3cc4c(cc3OC)N(C)[C@H]3[C@@](O)(C(=O)OC)[C@H](OC(C)=O)[C@]5(CC)C=CCN6CC[C@]43[C@@H]65)C2)C1		
		49											CC[C@]1(NC(=O)N2Cc3ccccc3C2)C[C@H]2CN(CCc3c([nH]c4ccccc34)[C@@](C(=O)OC)(c3cc4c(cc3OC)N(C)[C@H]3[C@@](O)(C(=O)OC)[C@H](OC(C)=O)[C@]5(CC)C=CCN6CC[C@]43[C@@H]65)C2)C1		
Active	10.08	105	10.23	inactive	10.12	Active	inactive	inactive	Active	inactive	9.08	inactive	CC[C@]1(NC(=O)N2Cc3ccc(NC(=O)c4cnccn4)cc3C2)C[C@H]2CN(CCc3c([nH]c4ccccc34)[C@@](C(=O)OC)(c3cc4c(cc3OC)N(C)[C@H]3[C@@](O)(C(=O)OC)[C@H](OC(C)=O)[C@]5(CC)C=CCN6CC[C@]43[C@@H]65)C2)C1	Dose-dependent effect	inhibition (Tubulin (Homo sapiens) [13]): inactive; Activity [14]: Active; Activity (Tubulin (Homo sapiens) [15]): Active; Activity (Tubulin (Homo sapiens) [16]): Active; Activity (HeLa [17]): inactive; inhibition (Tubulin (Homo sapiens) [18]): Active; fold change (FC) (HeLa [19]): 100; inhibition (Tubulin (Homo sapiens) [20]): Active; Activity [21]: Active; Ratio (HeLa [22]): 100
		101	10.23		10.17			inactive		inactive	9.06		CC[C@]1(NC(=O)N2Cc3ccc(NC(=O)c4cccnn4)cc3C2)C[C@H]2CN(CCc3c([nH]c4ccccc34)[C@@](C(=O)OC)(c3cc4c(cc3OC)N(C)[C@H]3[C@@](O)(C(=O)OC)[C@H](OC(C)=O)[C@]5(CC)C=CCN6CC[C@]43[C@@H]65)C2)C1		
